{
  "source": "patent US12496298B2",
  "about": "“Natural killer cells” (Imperial College Innovations Limited, priority 2017, dated 2025)",
  "key": {"[1]": {"test_system": "Human CD34+ cells", "test": "Toxicity to human CD34+ cells in NK cell culture", "format": "cell-based", "text": "The hypothesis that SR8278 increases NK cells production would not have any potential therapeutic value if it was not also true for human NK cell production. Therefore, the effect of SR8278 on human NK cell production from human HPCs was examined. Human HPCs were obtained as the CD34^+ population purified from umbilical cord blood from collaborators at the Anthony Nolan Research Institute, London. Human NK cell development goes through a similar developmental pathway to mouse NK cell development. […]\nCD34^+ umbilical cord blood progenitor cells were provided by Anthony Nolan Research Institute, University College London. […] Cells were thawed, counted and then plated on EL08.1D2 plates prepared previously at a concentration of 1000 cells/well in human NK cells differentiation medium (Alpha-MEM plus 20% Human AB serum (Invitrogen), 50 μM β-Mercaptoethanol and 1% P/S along with 5 ng/ml human-IL-3 (Peprotech), 20 ng/ml human-IL-7 (Peprotech), 10 ng/ml human-Flt3-L (Peprotech), 20 ng/ml human-SCF (Peprotech) and 10 ng/ml human-IL-15 (Peprotech). Note that human-IL-3 is only needed for the first week of culture. Cells were left in the culture at 37° C., 5% CO2 for 14 or 16 days with a change of human NK differentiation medium at day 7 and 12."}, "[2]": {"test_system": "Human CD34+ cells", "test": "In vitro development of human NK cells (hCD56+ hCD45+) from CD34+ umbilical cord blood progenitor cells", "format": "cell-based", "experimental": "FIG. 9: Human CD34^+ cells were cultured with the addition of 5 μM SR8278 at Day 4. At Day 14 and 16, percentage of hCD56^+ hCD45^+ (markers for human NK cells) cells was quantified using flow cytometry. (A) Graph showing percentage of hCD56^+ hCD45^+ cells compared to the ‘No drug’ control in different conditions. (B) Flow cytometry gating strategy for identification of human NK cells. (C) Representative flow cytometry results with percentage of NK cells shown. Results were averaged from one experiments with six repeats each and the error bars represent the mean+SD.\nThe hypothesis that SR8278 increases NK cells production would not have any potential therapeutic value if it was not also true for human NK cell production. Therefore, the effect of SR8278 on human NK cell production from human HPCs was examined. Human HPCs were obtained as the CD34^+ population purified from umbilical cord blood from collaborators at the Anthony Nolan Research Institute, London. Human NK cell development goes through a similar developmental pathway to mouse NK cell development. By contrast with mouse HPC culture, human CD34^+ cells were cultured straight onto EL08-1D2 stromal cells in the presence of IL-3, IL-7, FIt3L, SCF and IL-15 cytokines for 14 and 16 days before harvesting and analysis by flow cytometry. To try to optimise human NK cell production, 5 or 10 μM SR8278 were added on either day 2, 4 or 6 of the culture.\nOP9-GFP stromal cells were cultured in Iscove's Modified Dulbecco's Media (IMDM) (Sigma Aldrich) supplemented with 20% Fetal Bovine Serum (FBS), and Penicillin/[…] (P/S). For experiments done on 96-well plates, OP9 stromal cells were plated at the concentration of 2000 cells/well and incubated at 37° C., 5% CO2 for 1 day before the addition of HPCs. For experiments done on 24-well plates, OP9 stromal cells were plated at the concentration of 4000 cells/well and were incubated at 37° C. 5% CO2 for 2 days prior to addition of HPCs. EL08.1D2 stromal cells were cultured in Minimum Essential Medium Eagle—Alpha Modification (Alpha-MEM) supplemented with 50% Myelocult M5300 (Stem Cell Technologies), 7.5% FBS, 50 μM β-Mercaptoethanol, 1 μM Hydrocortisone and 1% P/S (Sigma Aldrich). For human CD34^+ progenitor cell experiments, EL08.1D2 were irradiated at 3000 rads/30 Gy and plated in 96-well EmbryoMax Gelatin (Millipore)-coated plates at the concentration of 20,000 cells/well. There were cultured at 32° C., 5% CO2 overnight, before CD34^+ cells were transferred onto them.\nCD34^+ umbilical cord blood progenitor cells were provided by Anthony Nolan Research Institute, University College London. These cells were isolated from whole cord blood and were cryopreserved in liquid nitrogen for storage and transport. Cells were thawed, counted and then plated on EL08.1D2 plates prepared previously at a concentration of 1000 cells/well in human NK cells differentiation medium (Alpha-MEM plus 20% Human AB serum (Invitrogen), 50 μM β-Mercaptoethanol and 1% P/S along with 5 ng/ml human-IL-3 (Peprotech), 20 ng/ml human-IL-7 (Peprotech), 10 ng/ml human-Flt3-L (Peprotech), 20 ng/ml human-SCF (Peprotech) and 10 ng/ml human-IL-15 (Peprotech). Note that human-IL-3 is only needed for the first week of culture. Cells were left in the culture at 37° C., 5% CO2 for 14 or 16 days with a change of human NK differentiation medium at day 7 and 12.\nCells to be analysed by flow cytometry were passed through 40 μm cell strainers to remove clumps and washed with PBS buffer, centrifuged at 800 g for 2 minutes and resuspended in 100 μl fluorescent activated cell sorting (FACS) buffer (PBS plus 1% BSA) with appropriate fluorochrome conjugated antibodies at a dilution of 1 in 300. […]"}},
  "data": [
    {"smiles": "CCOC(=O)C1Cc2ccccc2CN1C(=O)c1ccc(SC)s1", "note": "(centres unmarked) [SR8278, 1,2,3,4-Tetrahydro-2-[[5-(methylthio)-2-thienyl]carbonyl]-3-isoquinolinecarboxylic acid ethyl ester]", "values": [
      {"measurement": "toxicity to human CD34+ cells", "setting": "[1]; 5 μM", "result": "not toxic"},
      {"measurement": "toxicity to human CD34+ cells", "setting": "[1]; 10 μM", "result": "completely toxic"},
      {"measurement": "change of percentage of NK cells versus 'No drug' control", "setting": "[2]; 5 μM added at Day 4, harvested at Day 14", "result": "almost tripled"},
      {"measurement": "percentage of NK cells", "setting": "[2]; 5 μM added at Day 4, harvested at Day 14, 'No drug' control 5.53%", "result": 13.7, "unit": "%"},
      {"measurement": "change of percentage of NK cells versus 'No drug' control", "setting": "[2]; 5 μM added at Day 4, harvested at Day 16", "result": "doubled"},
      {"measurement": "percentage of NK cells", "setting": "[2]; 5 μM added at Day 4, harvested at Day 16, 'No drug' control 21.8%", "result": 44.3, "unit": "%"},
      {"measurement": "NK cell number", "setting": "[2]; 5 μM added on Day 2", "result": "clear increase"},
      {"measurement": "human NK cell development from human HPCs cultured in vitro", "setting": "[2]; summary in Discussion", "result": "significantly increase"}
    ]}
  ]
}
